In brackets after ≈: the same amount, converted by molar mass.
Test system: primary human vascular smooth muscle cells
Assay: Inhibition of cell proliferation, CyQUANT NF Cell Proliferation Assay
Format: cell-based
Conditions: drug in solution, FIG. 11A, read-out: IC50, dose required to achieve 50% inhibition of cell proliferation
Experimental: Cell viability was determined using CyQUANT™ NF Cell Proliferation Assay kit (Cat #C35006, ThermoFisher Scientific). Fluorescent readings were taken by a microplate reader (Cytation 5, BioTek Instruments Inc., Vermont). […] A) Dose-response effect following treatment of cells with Paclitaxel (PTX) or Sirolimus (SRL) in solution. From the dose-response study, IC50 for each drug was determined. IC50 is the dose that is required to achieve 50% inhibition of cell proliferation with respect to untreated cell.
Determination of Synergistic Effect of Combination Paclitaxel and Sirolimus: The synergistic effect of the combination treatment was determined in vitro using human vascular smooth muscle cells. The IC50 i.e., the drug amount required to inhibit cell proliferation by 50% with respect to the untreated cells was determined using cell viability assay. Drug combination index (CI) was used to determine if the combination treatment is synergistic (CI=<1), additive (CI=1) or antagonistic (CI>1).
Method: Primary human vascular smooth muscle cells (VSMCs) were incubated with different doses of the encapsulated drug(s) for six days. Cell viability was determined using CyQUANT™ NF Cell Proliferation Assay kit (Cat #C35006, ThermoFisher Scientific). Fluorescent readings were taken by a microplate reader (Cytation 5, BioTek Instruments Inc., Vermont).

Structure (SMILES)	IC50
CC(=O)O[C@H]1C(=O)[C@@]2(C)[C@H]([C@H](OC(=O)c3ccccc3)[C@]3(O)C[C@H](OC(=O)[C@H](O)[C@@H](NC(=O)c4ccccc4)c4ccccc4)C(C)=C1C3(C)C)[C@]1(OC(C)=O)CO[C@@H]1C[C@@H]2O [PTX, Paclitaxel]	1.16 mg/L (≈ 1.35 µM)
CO[C@H]1C[C@@H]2CC[C@@H](C)[C@@](O)(O2)C(=O)C(=O)N2CCCC[C@H]2C(=O)O[C@H]([C@H](C)C[C@@H]2CC[C@@H](O)[C@H](OC)C2)CC(=O)[C@H](C)/C=C(\C)[C@@H](O)[C@@H](OC)C(=O)[C@H](C)C[C@H](C)/C=C/C=C/C=C/1C [SRL, Sirolimus]	29.1 mg/L (≈ 31.8 µM)

From patent US20220193310A1, “DUAL AGENT NANOPARTICLE COMPOSITION FOR COATING MEDICAL DEVICES” (THE CLEVELAND CLINIC FOUNDATION, priority 2020, published 2022)
